Data on 9 compounds can be found in patent US20180117171A1, “IMMUNOCONJUGATES FOR PROGRAMMING OR REPROGRAMMING OF CELLS” (President and Fellows of Harvard College, priority 2015, published 2018).

Where no end group is shown, it is not given here. Where only a bound is given, the exact number is not on record here.

For series [1], the system named is BMDC. Kind of series: IL-12p70 elaboration from BMDC (ELISA). The settings on record: 100 nM, LPS 50 ng/ml.
Series [2] deals with BMDC. Kind of series: MHC II and co-stimulatory molecule surface presentation on BMDC after LPS. To be noted: 100 nM compound, next day 50 ng/ml LPS; mean ± SD. Type of series: cell-based, mouse. The method, then:
Day 9 BMDC were harvested from 100 mm diameter plates and seeded into 6 wells of a tissue culture plate in R10 media containing 100 nM dexamethasone or dexamethasone-[…] […] The BD LSR Fortessa was used to analyze the cells. Histograms were created using Flowjo (Tree Star Inc.) and statistical analysis was done using InStat (GraphPad Software).

A further series has as its system Jaws II cells. As to the kind of experiment: transwell migration of Jaws II DC. The format is cell-based. To be noted: 10^−6 or 10^−7 M dexamethasone.
The test system of series [3] is primary bone marrow dendritic cells (BMDC). As to the kind of experiment: dexamethasone effect on surface markers of bone marrow dendritic cells (FACS). The format is cell-based, mouse. The method, then:
Flow cytometry was conducted according to standard protocols. Cells were harvested, washed, and resuspended to a final cell concentration of 1-5 million cells/ml in ice cold phosphate buffered saline (PBS) with 10% fetal bovine serum (FBS) and 1% sodium azide. Anti-mouse antibodies including anti-CD11c, MHC II, CD80, CD86, and OVA 257-264 bound to H-2Kb were then aliquotted according to the manufacturer's recommended dilutions (Ebioscience). During staining, cells were incubated for 20 minutes at room temperature and then 20 minutes on ice. The cells were then washed and kept on ice until analysis. Some samples were fixed in 1% paraformaldehyde (PFA) for later flow cytometric studies. Flow cytometry was conducted on the BD LSR II or the BD Fortessa. Analysis was done using Flowjo (Tree Star Inc.).
The listed concentrations of dexamethasone were added on day 6 and day 8. For the lipopolysaccharide (LPS) condition, LPS was added to a concentration of 50 ng/ml on day 9. […] “LPS” samples had LPS, but no dexamethasone.
For these studies, dexamethasone was added on day 6 and day 8. LPS was added to a concentration of 50 ng/ml on day 9. […] “LPS” samples had LPS, but no dexamethasone.

For series [4], the system named is CD4+ T cells from OT-II mice. Kind of series: CD4 T cell proliferation with peptide-MPS stimulated BMDCs. The format is cell-based. The settings on record: compared to peptide stimulation only. An excerpt: FIG. 54A-C are a set of graphs showing the effect of peptide-MPS conjugates on CD4 T cell proliferation, as evaluated in vitro. BMDCs were stimulated with […] (peptide) (SEQ ID NO: 19), […] (SEQ ID NO: 19) conjugated to MPS through SMCC (SMCC), and […] BMDCs were then washed thoroughly and co-cultured with CD4^+ T cells from OT-II mice. OT-II mice are enriched for CD4^+ T cells recognizing the […] (SEQ ID NO: 20) peptide.

The test system of another series is JAWSII DCs. Kind of series: GM-CSF effects on JAWSII DC recruitment, proliferation, emigration and activation in vitro. The format is cell-based. The method, then: FIGS. 3A-C are graphs and FIG. 3D is a set of images showing data related to the concentration dependent effects of GM-CSF on DC proliferation, recruitment, activation and emigration in vitro. […] Migration counts measured at 12 hours. (3B) is the effects of GM-CSF concentration on the proliferation of JAWSII DCs. 0 (white bar), 50 (grey bar), and 500 ng/ml (black bar) of GM-CSF. […] Migration counts taken at 6 hours. (3D) are representative photomicrographs of TNF-α and LPS stimulated JAWSII DCs cultured in 5-50 or 500 ng/ml GM-CSF and stained for the activation markers MHCII and CCR7. Scale bar in (3D)—20 μm. Values in (3A-3C) represent mean and standard deviation (n=4); * P<0.05; ** P<0.01
High concentrations (>100 ng/ml) of GM-CSF, however, inhibited DC migration toward the LN-derived chemokine CCL19 (FIG. 3C).

Series [5] concerns bone marrow derived murine dendritic cells. Kind of series: chemokinesis of bone marrow dendritic cells toward alginate gels, time-lapse imaging. The format is cell-based. The settings on record: alginate gel with GM-CSF, cells followed for 8 hours. The method, then:
GM-CSF enhanced chemokinesis of bone marrow dendritic cells in vitro. Alginate gels with or without GM-CSF ([…]) were placed in a petri dish and surrounded with collagen containing bone marrow derived murine dendritic cells (FIG. 14A). The cells were followed for 8 hours using time-lapse imaging. The velocity of the cells was calculated from initial and final position values and is plotted in FIGS. 14B and C in μm/min. Chemotaxis toward the alginate is given as the positive x coordinate (positive x is directed radially inward). Each dot reflects the velocity of 1 cell, and each plot is representative of three experiments. The average migration speed of cells in the presence of GM-CSF was 3.1 μm/min compared to 1.1 μm/min in the absence of GM-CSF.

Series [6] concerns mononuclear cells isolated from the bone marrow. As to the kind of experiment: DC induced in vitro from bone marrow cells with GM-CSF with or without TSLP, VIP or TGF-β. The format is cell-based, C57BL/6 mice. The settings on record: for CD11c+/CD86+ in total BM cells: 7 day incubation; for expression of IL-6 and IL-12: GM-CSF in the presence of factor, bacterial stimulation, compared to GM-CSF alone. An excerpt: The surface phenotypes of CD11c+DC in the BM culture were monitored by flow cytometry and the proportionality of each phenotype is expressed as a percent (%) of the total mononuclear cells (MNC) (FIG. 5, Table 1).
The present invention provides for a material-based local application of GM-CSF with appropriate DC influencing factors that leads to tolerogenic DCs (tDCs), and subsequent enrichment of iTreg cells. Candidate biofactors include thymic stromal lymphopoietin (TSLP), vasoactive intestinal peptide (VIP), and transforming growth factor-beta (TGF-β). Screening is based on the induced DC's anti-inflammatory properties. […] Overall, these observations that the combination of GM-CSF with TSLP efficiently induces DC with an anti-inflammatory phenotype.

Another series concerns CD11c(+)CD86(+) DCs. Kind of series: in vivo DC recruitment to subcutaneous GM-CSF loaded polymers. Further details: species or system C57BL/6J mice. An excerpt:
(§1) FIGS. 4A-F are graphs and images showing data on the in vivo control of DC recruitment and programming. […] Numbers in FACS plots indicate the percentage of the cell population positive for both markers. (4D) is the percentage of total cells that were positive for the DC markers CD11c and CD86, in blank (-∘-) and GM-CSF (-•-) loaded polymers as a function of time post implantation. (4E) The total number of DCs isolated from blank (-∘-) and GM-CSF (-•-) loaded polymers as a function of time post implantation. (4F) The fractional increase in CD11c(+)CD86(+) DCs isolated from polymers at day-14 after implantation in response to doses of 1000, 3000 and 7000 ng of GM-CSF as compared to the control. Scale bar—500 μm. Values in 4A, 4D, 4E, and 4F represent mean and standard deviation (n=4 or 5); * P<0.05; ** P<0.01.
(§2) The polymer delivery vehicle presents GM-CSF in a defined spatiotemporal manner in vivo, following introduction into the tissue of interest. Exemplary vehicle quickly release approximately 60% of the bioactive GM-CSF load within the first 5 days, followed by slow and sustained release of bioactive GM-CSF over the next 10 days (FIG. 4A), to allow diffusion of the factor through the surrounding tissue and effectively recruit resident DCs. Polymers were loaded with 3 μg of GM-CSF and implanted into the dorsal subcutaneous site of C57BL/6J mice. […]

Series [7] in a line: release profile of GM-CSF from polymer delivery vehicle. The format is physicochemical. To be noted: within the first 5 days.
Description: as §1, §2

Series [8] has as its system B3Z T cell line. As to the kind of experiment: B3Z cell: DC co-culture, X-gal assay. The format is cell-based. The method, then: (§3) 15 hours later, the cells were fixed and stained with X-gal (Imgenix) according to the manufacturer's instructions. The cells were photographed at 10× magnification using a standard bright field microscope. A similar protocol was followed for the chlorophenol […] staining assay (Imgenix), except that after 15 hours, the cells were washed and lysed in a chlorophenol red-β-D-galactopyranoside staining buffer. After a 4 hour incubation at 37° C., the absorbance at 590 nm was obtained.
Following a 15 hour co-culture, the cells were fixed, stained with X-gal, and imaged. The images were all obtained at 10× magnification and represent a typical distribution of cells (FIG. 29).

Series [9] has as its system B3Z T cell line. As to the kind of experiment: B3Z cell: DC co-culture, CPRG assay. Type of series: cell-based. To be noted: antigen concentrations greater than 10 nM. The method, then: as §3
The cells were then lysed and treated with the β-galactosidase substrate, chlorophenol red-β-D-galactopyranoside (CPRG). After 4 hours of incubation, the absorbance at 590 nm was obtained. Staining was due to β a-galactosidase expression driven by elements of the IL-2 promoter.

For series [10], the system named is bone marrow derived dendritic cells (BMDCs). Kind of series: antigen presentation of […]-MPS conjugate by BMDCs (flow cytometry). The format is cell-based. The settings on record: 18 hours, versus peptide adsorbed to MPS. An excerpt: FIG. 53 is a pair of graphs evaluating the antigen presentation of […] (SEQ ID NO: 18)-MPS conjugate. […] Percentage of BMDCs presenting the peptide was quantified using flow cytometry.
In general terms: In flow cytometry, cells or beads pass a laser one at a time.

Regarding `C[C@@H]1C[C@H]2[C@@H]3CCC4=CC(=O)C=C[C@]4(C)[C@@]3(F)[C@@H](O)C[C@]2(C)[C@@]1(O)C(=O)CO` [dexamethasone], in the series on BMDC [1], the “reduction of IL-12 elaboration from BMDC, factor” value is on record as around 4. Also, in the series on BMDC [2], the “MFI CD80” value was 3100 ± 100^δ, the “MFI CD86” value is 2050 ± 5^β and the “MFI MHC II” value is 540 ± 20^α. Besides, the “number of cells that migrated to CCL20 relative to control” value with Jaws II cells is “approximately 1.8 fold”. In addition, the “dexamethasone concentrations with MHC II, CD80, CD86 staining reduced compared to LPS positive control” value in series [3] (LPS treated) is reported as “greater than or equal to 10^−8 M”. In series [3] (immature BMDC cultures), the “dexamethasone concentrations that reduced CD11c expression” value was ≥ 10^−8 M. For the same compound, in [3] (mature DC treated with LPS 50 ng/ml), the “dexamethasone concentration at which inhibition of CD11c+ staining begins” value is on record as “around 10^−8 M”.

On to “CISQAVHAAHAEINEAGR (SEQ ID NO: 19) conjugated to MPS through SMCC: ovalbumin CD4 epitope conjugated to MPS through stable SMCC linker (also: conjugated to MPS via SMCC linker)”, for which, in series [4], the “CD4 T cell proliferation” value was “significantly higher T cell proliferation”.

For the compound “CISQAVHAAHAEINEAGR (SEQ ID NO: 19) conjugated to MPS through SPDP: ovalbumin CD4 epitope conjugated to MPS through reducible SPDP linker (also: conjugated to MPS via SPDP linker)”, the “CD4 T cell proliferation” value in series [4] was “significantly higher T cell proliferation”.

Turning to GM-CSF, the “DC activation via TNF-α and LPS stimulation (MHCII, CCR7 expression)” value in the series on JAWSII DCs (high concentrations of GM-CSF) is given as “suppressed DC activation”. For the same compound, in the series with JAWSII DCs (in vitro), the “DC recruitment and proliferation” value is “enhanced DC recruitment and proliferation in a dose-dependent manner”. Moreover, in the series on JAWSII DCs (transwell), the “GM-CSF concentrations that inhibited DC migration toward CCL19” value is above 100 ng/mL. In series [5], the “average migration speed of cells” value is 3.1 μm/min. Besides, in series [6], the “CD11c+/CD86+ in total BM cells” value amounted to 14.7%. Moreover, the “CD11c(+)CD86(+) DCs by FACS” value in the series on CD11c(+)CD86(+) DCs (3 μg GM-CSF loaded polymers) is listed as “increased not just the total cell number, but also the percentage of infiltrating cells that were DCs”. In addition, the “total cellular infiltration at the site” value in the series on CD11c(+)CD86(+) DCs (3 μg GM-CSF, day-14, compared to control) is “significantly enhanced”. Also, the “bioactive GM-CSF load released” value in series [7] was “approximately 60%”.

SIINFEKL (Exemplary ovalbumin peptide.): the entries for the “X-gal staining of B3Z cells” value with B3Z T cell line [8] (0.05 μM peptide) and in the series with B3Z T cell line [8] (1.0 μM peptide) were “many positive cells” and “numerous positive cells”, respectively. Moreover, in the series on B3Z T cell line [9], the “CPRG hydrolysis versus dexamethasone-SIINFEKL groups” value is “greater CPRG hydrolysis”.

For the compound “SPDP CSIINFEKL (SEQ ID NO: 18)-MPS: ovalbumin CD8 epitope CSIINFEKL conjugated to MPS through reducible SPDP linker (also: SPDP linker to MPS)”, the figures for the “BMDCs presenting the peptide” value in series [10] (10 nM) and in series [10] (100 nM) were “significantly better presented” and “comparable levels”, respectively.

As to TGF-β, in series [6], the “CD11c+/CD86+ in total BM cells” value came to 10.5%; the “expression of IL-6 and IL-12” value is reported as “diminished expression”.

Take TSLP: thymic stromal lymphopoietin: in series [6], the “expression of IL-6 and IL-12” value was “diminished expression”.

Regarding “VIP: vasoactive intestinal peptide (HSDAVFTDNYTRLRKQMAVKKYLNSILN; ends and bridges not checked; UniProt P01282 125-152, looked up)”, in [6], the “expression of IL-6 and IL-12” value is reported as “diminished expression”. Moreover, the “IL-10 production by induced DC” value in [6] (GM-CSF plus factor (100 ng/ml), 7 days, bacterial challenge) is “did not up-regulate”.
